Measurements taken from patent publication US20130237478A1, “COMPOSITIONS AND METHODS FOR TREATMENT OF PERIPHERAL VASCULAR DISEASE” (TARIX PHARMACEUTICALS LTD., priority 2012, published 2013).
Positions of bridges follow the written chain, without caps; N, C: chain ends. No end group written: not given here.

Assays:
hind limb ischemia = assay: Capillary density in muscle sections, mouse hind limb ischemia model; format: in vivo, Balb/c mice; conditions: Example 2, 49 days after treatment beginning
Description: The model used in this example is the same as for Example 1. Briefly, the hind limb ischemia model in mice used in this example involves two ligations of the proximal end of the femoral artery and its dissection between the two ligatures. The surgery causes obstruction of the blood flow and subsequently leads to severe ischemic damage (Goto, et al.; Kang, et al.). In this experiment, healthy adult female Balb/c mice were used. Hind limb ischemia was induced in mice using protocols previously described. Briefly, Balb/c female mice were maintained on a standard diet with water available ad libitum. Mice were anesthetized and an incision was made in the skin in the inguinal area. The femoral artery was ligated twice with 6-0 silk thread and transected between the ligatures after this the wound was closed with 4-0 silk thread and the mouse was allowed to recover.
An Angiotensin (1-7) polypeptide composition (PanCyte) and vehicle control (DPBS) were supplied as ready to use solutions and were stored at 4° C. until use. […]
Sections of muscle samples were taken from the same areas in 6-7 animals from each group. Capillaries were counted under a microscope in a total 12 random fields from different sections. Density was expressed as the mean number of capillaries per field of view. […]

[1] = system: Transient middle cerebral artery occlusion (tMCAO); assay: Stepping test (forelimb akinesia) after tMCAO stroke; format: in vivo, rats; conditions: all experimental conditions (Table 22); by Day 28 post-surgery
Protocol: (§1) For the purposes of this example, Transient middle cerebral artery occlusion (tMCAO) procedure Day is defined as “Day 1” in this study. On the day of surgery anesthesia were induced with 4% isoflurane in a mixture of 70% N2O and 30% O2 and maintained with 1.5-2% isoflurane.
The tMCAO procedures were performed according to the method described R. Schmid-Elsaesser et al. Briefly, the right CCA (Common Carotid Artery) was exposed through a midline neck incision and carefully dissected free from surrounding nerves and fascia—from its bifurcation to the base of the skull. The occipital artery branches of the ECA (External Carotid Artery) were then isolated, and these branches were dissected and coagulated. The ECA was dissected further distally and coagulated along with the terminal lingual and maxillary artery branches, which was then divided. The ICA (Internal Carotid Artery) was isolated and carefully separated from the adjacent vagus nerve, and the pterygopalatine artery was ligated close to its origin with a 5-0 nylon suture (SMI, Belgium). Next, a 4-0 silk suture was tied loosely around the mobilized ECA stump, and a 4 cm length of 4-0 monofilament nylon suture (the tip of the suture was blunted by using a flame, and the suture was coated with polylysine, prior to insertion) was inserted through the proximal ECA into the ICA and thence into the circle of Willis, effectively occluding the MCA. The surgical wound was closed and the animals were returned to their cages to recover from anesthesia. […]
Animals were tested for forelimb akinesia in a stepping test (ST). The animal was held with its hind limbs fixed with one hand and the forelimb not to be monitored with the other, while the unrestrained fore-paw touches the table. The number of adjusting steps are counted while the animal is moved sideways along the table surface (85 cm in approximately five seconds), in the forehand & backhand direction for both forelimbs. […]

[2] = system: Transient middle cerebral artery occlusion (tMCAO); assay: Body swing test after tMCAO stroke; format: in vivo, rats; conditions: for body swing performance vs vehicle: by Day 28
Protocol: as §1
The tMCAO procedures were performed according to the method described R. Schmid-Elsaesser et al. Briefly, the right CCA (Common Carotid Artery) was exposed through a midline neck incision and carefully dissected free from surrounding nerves and fascia—from its bifurcation to the base of the skull. The occipital artery branches of the ECA (External Carotid Artery) were then isolated, and these branches were dissected and coagulated. The ECA was dissected further distally and coagulated along with the terminal lingual and maxillary artery branches, which was then divided. The ICA (Internal Carotid Artery) was isolated and carefully separated from the adjacent vagus nerve, and the pterygopalatine artery was ligated close to its origin with a 5-0 nylon suture (SMI, Belgium). Next, a 4-0 silk suture was tied loosely around the mobilized ECA stump, and a 4 cm length of 4-0 monofilament nylon suture (the tip of the suture was blunted by using a flame, and the suture was coated with polylysine, prior to insertion) was inserted through the proximal ECA into the ICA and thence into the circle of Willis, effectively occluding the MCA. The surgical wound was closed and the animals were returned to their cages to recover from anesthesia. One hour and a half after occlusion rats were re-anesthetized, the monofilament was withdrawn to allow reperfusion, the surgical wound was closed and rats were returned to their cages.
Animals were subjected to a modified Modified Neurological Rating Scale (mNRS) at 24 hours post reperfusion. Only animals with an overall score of ≧10 were included in this study. Animals were allocated into the test groups, according to the mNRS results on day 2, in order to have similar distribution of rats performance between groups. Starting on day 2, 24 hours post-surgery, animals in groups 4, 5 and 7 were implanted subcutaneously with an osmotic Alzet pump and treated with either 500 μg/kg TXA127, 500 μg/kg PanCyte, or 50 μg/kg Linear PanCyte. Animals in groups 2, 3 and 6 received 500 μg/kg or 1,000 μg/kg TXA127 or 500 μg/kg PanCyte, administered subcutaneously via daily injection. Animals in group 1 were treated with a daily subcutaneous injection of a PBS (vehicle).
Each rat was held approximately one inch from the base of its tail. It was then elevated to an inch above a surface of a table. The rat was held in the vertical axis, defined as no more than 10° to either the left or the right side. A swing was recorded whenever the rat moves its head out of the vertical axis to either side. Before attempting another swing, the rat must return to the vertical position for the next swing to be counted. Twenty (20) total swings were counted. A normal rat typically has an equal number of swings to either side. Following focal ischemia, the rat tends to swing to the contralateral side (left side in this case). Body swing scores are expressed as a percentage of […] over total swings.

Question: Which results are given for “cyclized Asp^1-Arg^2-Val^3-Ser^4-Ile^5-His^6-Cys (SEQ ID NO:22) (DRVSIHC; bridge 4-7; not fully specified; printed as Asp1-Arg2-Val3-Ser4-Ile5-His6-Cys7) [PanCyte, cyclic angiotensin peptide]”?
Answer: capillary density (number of capillaries per field) vs control (hind limb ischemia; 50 μg/kg SC daily): significantly increased the number of capillaries; capillary density (number of capillaries per field) vs control (hind limb ischemia; 500 μg/kg SC daily): significantly increased the number of capillaries; stepping test performance vs vehicle [1]: significantly improved the performance; body swing performance vs vehicle ([2]; 500 μg/kg SC daily): significant improvement in performance; body swing performance ([2]; 500 μg/kg by Alzet pump, by Day 21): showed improvement; body swing performance vs vehicle ([2]; 500 μg/kg by Alzet pump): significant improvement in performance
